Laboratory results from ChEMBL document CHEMBL1828586 (J Med Chem, 2011).

Tests used:
PPC-1 = assay: Anticancer activity against human PPC1 cells after 96 hrs by SRB assay; assay type: functional, cell-based; settings: PPC-1, 96 h
[1] = Anticancer activity against mouse B16-F1 cells after 96 hrs by SRB assay; assay type: functional, cell-based; settings: B16-F1, 96 h
DU-145 = assay: Anticancer activity against human DU145 cells after 96 hrs by SRB assay; assay type: functional, cell-based; settings: DU-145, 96 h
PC-3 = assay: Anticancer activity against human PC3 cells after 96 hrs by SRB assay; assay type: functional, cell-based; settings: PC-3, 96 h
LNCaP = assay: Anticancer activity against human LNCAP cells after 96 hrs by SRB assay; assay type: functional, cell-based
A-375 = assay: Anticancer activity against human A375 cells after 96 hrs by SRB assay; assay type: functional, cell-based; settings: A-375, 96 h
[2] = Anticancer activity against human WM164 cells after 96 hrs by SRB assay; assay type: functional, cell-based; settings: WM164, 96 h
OVCAR-8 [3] = assay: Anticancer activity against human OVCAR8 cells after 96 hrs by SRB assay; assay type: functional, cell-based; settings: OVCAR-8, 96 h
NCI/ADR-RES = assay: Anticancer activity against P-gp overexpressing human NCI/ADR-RES cells after 96 hrs by SRB assay; assay type: functional, cell-based
OVCAR-8 [4] = assay: Resistance factor, ratio of IC50 for human NCI-ADR-RES cells to IC50 for drug-sensitive human OVCAR8 cells; assay type: functional

IC50 (DU-145) [µM]	IC50 (PC-3) [µM]	IC50 (LNCaP) [µM]	IC50 (A-375) [µM]	SMILES	IC50 (PPC-1) [µM]	IC50 [1] [µM]	IC50 [2] [µM]	IC50 (OVCAR-8 [3]) [µM]	IC50 (NCI/ADR-RES) [µM]	Ratio IC50 (OVCAR-8 [4])
0.116	0.087	0.103	0.1	COc1cc(C(=O)c2csc(-c3ccc(O)cc3)n2)cc(OC)c1OC	0.076	0.11	–	–	–	–
0.145	0.101	0.101	0.1	COc1cc(C(=O)c2cc(-c3ccccc3)n[nH]2)cc(OC)c1OC	0.084	0.245	–	–	–	–
0.103	0.12	0.169	0.2	COc1cc(/C(=N/O)c2csc(-c3ccccc3)n2)cc(OC)c1OC	0.144	0.3	–	–	–	–
> 10	> 10	> 10	2.9	CO/N=C(/c1cc(OC)c(OC)c(OC)c1)c1csc(-c2ccccc2)n1	–	3.8	3.4	–	–	–
> 10	–	–	> 10	CO/N=C(\c1cc(OC)c(OC)c(OC)c1)c1csc(-c2ccccc2)n1	> 10	> 10	> 10	–	–	–
2.65	2.47	1.39	1.9	COc1cc(C(=C(C)C)c2csc(-c3ccccc3)n2)cc(OC)c1OC	2.04	3.8	3.7	–	–	–
> 10	> 10	> 10	> 10	COc1cc(-c2csc(-c3ccccc3)n2)cc(OC)c1OC	> 10	> 10	> 10	–	–	–

More lines, now with the values behind:

SMILES	IC50 (DU-145) [µM]	IC50 (PC-3) [µM]	IC50 (LNCaP) [µM]	IC50 (A-375) [µM]	IC50 (PPC-1) [µM]	IC50 [1] [µM]	IC50 [2] [µM]	IC50 (OVCAR-8 [3]) [µM]	IC50 (NCI/ADR-RES) [µM]	Ratio IC50 (OVCAR-8 [4])
COc1cc(C(=O)c2ccc(-c3ccccc3)o2)cc(OC)c1OC	0.035	0.021	0.023	0.027	0.02	0.151	–	–	–	–
COc1cc(/C(=C/C#N)c2csc(-c3ccccc3)n2)cc(OC)c1OC	2.28	0.89	0.58	4.6	0.9	5.4	4.9	–	–	–
COc1cc(/C(=C\C#N)c2csc(-c3ccccc3)n2)cc(OC)c1OC	10	10	1.99	1.2	10	1.2	1	–	–	–
COc1cc(Sc2cccc(-c3ccccc3)c2)cc(OC)c1OC	> 10	> 10	2.3	1.6	2.3	2.4	2	–	–	–
COc1cc(S(=O)(=O)c2cccc(-c3ccccc3)c2)cc(OC)c1OC	> 10	> 10	> 10	> 10	> 10	> 10	> 10	–	–	–
COc1cc([S+]([O-])c2cccc(-c3ccccc3)c2)cc(OC)c1OC (stereo not given)	> 10	> 10	> 10	> 10	> 10	> 10	> 10	–	–	–
COc1cc(NS(=O)(=O)c2cccc(-c3ccccc3)c2)cc(OC)c1OC	> 10	> 10	> 10	> 10	> 10	> 10	> 10	–	–	–
COc1cc(C(=O)c2csc(-c3cc4ccccc4[nH]3)n2)cc(OC)c1OC	0.032	0.024	0.028	0.019	0.028	0.043	–	–	–	–
COc1cc(C(=O)c2csc(Nc3ccc(F)cc3)n2)cc(OC)c1OC	0.063	–	0.041	–	–	–	–	0.044	0.025	–
COc1cc(C(=O)c2csc(Nc3ccc(C)cc3)n2)cc(OC)c1OC	–	–	–	–	–	–	–	0.028	0.021	0.8
CC(=O)O[C@H]1C(=O)[C@@]2(C)[C@H]([C@H](OC(=O)c3ccccc3)[C@]3(O)C[C@H](OC(=O)[C@H](O)[C@@H](NC(=O)c4ccccc4)c4ccccc4)C(C)=C1C3(C)C)[C@]1(OC(C)=O)CO[C@@H]1C[C@@H]2O [PACLITAXEL]	–	–	–	–	–	–	–	0.0047	–	–
